According to ChEMBL document CHEMBL5154666, “Small molecules with tetrahydroquinoline-containing Povarov scaffolds as inhibitors disrupting the Protein-RNA interaction of LIN28-let-7” (Eur J Med Chem, 2022):
pIC50: −log10 of the molar value.

Assays:
[1] = Inhibition of Cy3-labeled mouse preE-let-7f-1 miRNA binding to human LIN28A (16 to 187 residues) expressed in Escherichia coli BL21 (DE3) at 75 uM preincubated for 2 hrs followed by miRNA addition and measured after 15 mins by electrophoretic mobility shift assay relative to control
JAR = assay: Antiproliferative activity against human JAR cells assessed as reduction in cell viability at 10 uM by MTT assay; assay type: functional
[2] = Inhibition of FAM-labeled mouse preE-let-7f-1 miRNA binding to human LIN28A (16 to 187 residues) expressed in Escherichia coli BL21 (DE3) by fluorescence polarization assay
[3] = Inhibition of FAM-labeled mouse preE-let-7f-1 miRNA binding to human LIN28A (16 to 187 residues) expressed in Escherichia coli BL21 (DE3) preincubated for 30 mins followed by miRNA addition by fluorescence polarization assay
[4] = Inhibition of Cy3-labeled mouse preE-let-7f-1 miRNA binding to human LIN28A (16 to 187 residues) expressed in Escherichia coli BL21 (DE3) preincubated for 2 hrs followed by miRNA addition and measured after 15 mins by electrophoretic mobility shift assay

| Structure (SMILES) | inhibition [1] [%] | inhibition at 10 µM (JAR) [%] | further results |
| --- | --- | --- | --- |
| CC(=O)c1ccc2c(c1)[C@@H]1C=CC[C@@H]1[C@H](c1ccc(C(=O)O)cc1)N2 | < 5 | – | – |
| CCOc1cccc2c1N[C@@H](c1ccc(C(=O)O)[nH]1)[C@H]1CC=C[C@@H]21 | – | 23 | – |
| N#Cc1ccc2c(c1)[C@@H]1C=CC[C@@H]1[C@H](c1ccc(C(=O)O)cc1)N2 | < 5 | – | – |
| CCOc1cccc2c1N(C(C)=O)[C@@H](c1ccc(C(=O)O)cc1)[C@H]1CCCN(C(=O)OC(C)(C)C)[C@@H]21 | – | 35 | – |
| CCOc1cccc2c1N[C@H](c1ccc(C(=O)O)cc1)[C@@H]1CC=C[C@H]21 | – | – | pIC50 [2]: 4.40 |
| CCOc1cccc2c1N[C@@H](c1cccc(O)c1)[C@H]1CC=C[C@@H]21 | < 5 | – | – |
| O=C(O)c1cccc([C@@H]2Nc3c(OC(F)(F)F)cccc3[C@@H]3C=CC[C@@H]32)c1 | – | 20 | – |
| CCOc1cccc2c1N(C(C)=O)[C@@H](c1ccc(C(=O)O)cc1)[C@H]1CCCN[C@@H]21 | – | 19 | – |
| CC(C)Oc1cccc2c1N[C@@H](c1ccc(C(=O)O)cc1)[C@H]1CC=C[C@@H]21 | < 5 | – | – |
| COc1cccc2c1N[C@@H](c1ccc(C(=O)O)cc1)[C@H]1CC=C[C@@H]21 | < 5 | – | – |
| CCOc1cccc2c1N(C(C)=O)[C@@H](c1cccc(C(=O)O)c1)[C@H]1CC=C[C@@H]21 | – | 31 | – |
| CCOc1cccc2c1N[C@@H](c1cccnc1)[C@H]1CC=C[C@@H]21 | < 5 | – | – |
| CCOc1cccc2c1N[C@@H](c1ccc(C(=O)O)cc1)[C@H]1CC=C[C@@H]21 | 53 | < 10 | pIC50 [2]: 4.30; pIC50 [4]: 4.38 |
| CCOc1cccc2c1N[C@@H](c1ccc(C#N)cc1)[C@H]1CC=C[C@@H]21 | < 5 | – | – |

Now from value to compound, other results behind:

| inhibition [1] [%] | Structure (SMILES) | inhibition at 10 µM (JAR) [%] | further results |
| --- | --- | --- | --- |
| < 5 | CCOc1cccc2c1N[C@@H](c1ccc([N+](=O)[O-])cc1)[C@H]1CC=C[C@@H]21 | – | – |
| < 5 | CCOC(=O)[C@@H]1Nc2c(OCC)cccc2[C@@H]2C=CC[C@H]12 | – | – |
| 86 | CCOc1cccc2c1N[C@@H](c1cccc(C(=O)O)c1)[C@H]1CC=C[C@@H]21 | < 10 | pIC50 [3]: 5.40; pIC50 [4]: 4.66 |
| < 5 | CC(=O)c1ccc2c(c1)N[C@@H](c1ccc(C(=O)O)cc1)[C@H]1CC=C[C@@H]21 | – | – |
| < 5 | COc1cc2c(c(OC)c1OC)[C@@H]1C=CC[C@@H]1[C@H](c1ccc(C(=O)O)cc1)N2 | – | – |
| 86 | CCOc1cccc2c1N[C@@H](C(=O)O)[C@H]1CC=C[C@@H]21 | < 10 | pIC50 [4]: 4.67 |
| < 5 | CCOc1cccc2c1N[C@@H](c1ccc(C(=O)OC)cc1)[C@H]1CC=C[C@@H]21 | – | – |
| 34 | O=C(O)c1ccc([C@@H]2Nc3c(Cl)cc(Cl)cc3[C@@H]3C=CC[C@@H]32)cc1 | – | – |
| < 5 | CCOc1cccc2c1N[C@@H](c1ccc(C(F)(F)F)cc1)[C@H]1CC=C[C@@H]21 | – | – |
